What was measured:
[1] = system: human acute promyelocytic leukemia cells (HL-60); test: Reduction of nitro-blue tetrazolium (NBT) by treated HL-60 cells; assay type: cell-based; details: HL-60, 5 days incubation, TPA 200 ng/ml, 0.1% NBT, 20 minutes at 37° C.
Experimental: The biochemical activity of cells treated with the compound was measured as follows:
The cells after 5 days incubation are centrifuged and diluted with RPMI-1640 medium supplemented with 5% fetal calf serum, to provide a definite number of the cells. To the diluted cell suspension are then added 200 ng/ml of […] (TPA) and the resulting culture medium is then incubated for 20 minutes at 37° C. in the presence of 0.1% of NBT. Thus, the mature differentiated cells containing blue-black formazan is counted by microscopy, so that the ratio of the cells having the ability to reduce NBT, to total cells, can be calculated.

[2] = system: human acute promyelocytic leukemia cells (HL-60); test: Differentiation of HL-60 cells, morphological changes of nuclei (Wright-Giemsa); assay type: cell-based; details: HL-60, 4 days; test concentration not stated
Experimental: The HL-60 cells are cultured in plastic flasks in RPMI-1640 medium supplemented with 5% heat inactivated fetal calf serum and antibiotics (penicillin G and streptomycin). The cells (3×10^4 /ml) were cultured with a compound of the present invention for 4 days. Growth inhibition of the cells by the test compounds was determined by counting the number of cells by microscope and relative ratio was examined by taking the number of cells by control (without test compound) as 100%. The cells are fixed and stained with Wright-Giemsa to examine the morphological changes of the nuclei.

[3] = system: HL-60 transplanted to nude mice; test: Treatment of nude mice transplanted with HL-60; assay type: in vivo, nude mouse (BALB/c, nu/nu); details: per os, 200 mg/kg/day, days 9, 14 and 17 after transplantation; measured 4, 6, 8 and 11 days after first administration
Experimental: A test of treatment of nude mice, to which HL-60 have been transplanted, with a compound of the present invention is performed as follows:
A test compound (e.g., p-(5,6,7,8-tetrahydro-5,5,8,8-tetramethyl-2-naphthylcarbamoyl)benzoic acid) is suspended in 10% (v/v) Tween 80 in a concentration of 10 mg/ml. Cells (5×10^7) of HL-60 were transplanted subcutaneously to a nude mouse (BALB/c, nu/nu female Nihon Clea).
At the end of days 9, 14 and 17 after the transplantation, 0.1 ml of the suspension per 10 g of body weight of mouse were administrated per os two times at intervals of 7 hours (200 mg/kg/day).

`COC(=O)c1ccc(C2OC2c2ccc3c(c2)C(C)(C)CCC3(C)C)cc1` (stereo not shown) [H drawing 10 H H OCH3 drawing 9] was tested, and the “Reductivity of NBT” value [1] was 78%, the “Banded and Segmented Neutrophils” value [2] was 18% and the “Myelocytes and Metamyelocytes” value [2] was 63%. It also gave a Promyelocytes [2] of 19%.

`CC1(C)CCC(C)(C)c2cc(C(=O)C=Cc3ccc(C(=O)O)cc3)ccc21` [No. 11] was tested, and the “Reductivity of NBT” value [1] was 95%, the “Banded and Segmented Neutrophils” value [2] was 12% and the “Myelocytes and Metamyelocytes” value [2] was 86%. For the same compound, the Promyelocytes [2] was 2%.

With `CC1(C)CCC(C)(C)c2cc([N+]([O-])=Nc3ccc(C(=O)O)cc3)ccc21` [H drawing 12 H H OH drawing 13] the “Reductivity of NBT” value [1] was 70%, the “Banded and Segmented Neutrophils” value [2] was 7% and the “Myelocytes and Metamyelocytes” value [2] was 53%. For the same compound, the Promyelocytes [2] was 40%.

With `CCc1ccc(C(=O)C=Cc2ccc(C(=O)OC)cc2)cc1CC` [H Et Et H H OCH3 drawing 7] the “Reductivity of NBT” value [1] was 72%, the “Banded and Segmented Neutrophils” value [2] was 8% and the “Myelocytes and Metamyelocytes” value [2] was 54%. The Promyelocytes [2] was 38%.

With `CC1=C(/C=C/C(C)=C/C=C/C(C)=C/C(=O)O)C(C)(C)CCC1` [Retinoic acid, reference compound] the “Reductivity of NBT” value [1] was 75%, the “Banded and Segmented Neutrophils” value [2] was 4% and the “Myelocytes and Metamyelocytes” value [2] was 71%. For the same compound, the Promyelocytes [2] was 25%.

With `COC(=O)c1ccc(N=Nc2ccc3c(c2)C(C)(C)CCC3(C)C)cc1` [No. 57] the “Reductivity of NBT” value [1] was 60%, the “Banded and Segmented Neutrophils” value [2] was 10% and the “Myelocytes and Metamyelocytes” value [2] was 49%. It also gave a Promyelocytes [2] of 41%.

For `CC(C)(C)c1ccc(C(=O)C=Cc2ccc(C(=O)O)cc2)cc1` [No. 9], the “Reductivity of NBT” value [1] was 68%, the “Banded and Segmented Neutrophils” value [2] was 6% and the “Myelocytes and Metamyelocytes” value [2] was 48%. It also gave a Promyelocytes [2] of 46%.

For `CC(C)(C)c1cc(C(=O)C=Cc2ccc(C(=O)O)cc2)cc(C(C)(C)C)c1` [No. 8], the “Reductivity of NBT” value [1] was 95%, the “Banded and Segmented Neutrophils” value [2] was 16% and the “Myelocytes and Metamyelocytes” value [2] was 82%. For the same compound, the Promyelocytes [2] was 2%.

For `COC(=O)c1ccc(C=CC(=O)c2ccc3c(c2)C(C)(C)CCC3(C)C)cc1` [No. 13], the “Reductivity of NBT” value [1] was 97%, the “Banded and Segmented Neutrophils” value [2] was 4% and the “Myelocytes and Metamyelocytes” value [2] was 91%. It also gave a Promyelocytes [2] of 5%.

With `CC(C)c1ccc(N=Nc2ccc(C(=O)O)cc2)cc1C(C)C` [No. 50] the “Reductivity of NBT” value [1] was 55%, the “Banded and Segmented Neutrophils” value [2] was 11% and the “Myelocytes and Metamyelocytes” value [2] was 50%. It also gave a Promyelocytes [2] of 39%.

With `CC1(C)CCC(C)(C)c2cc(NC(=O)c3ccc(C(=O)O)cc3)ccc21` [No. 35, p-(5,6,7,8-tetrahydro-5,5,8,8-tetramethyl-2-naphthylcarbamoyl)benzoic acid] the Tumor growth [3] was “tumor growth was clearly suppressed”, the “Reductivity of NBT” value [1] was 98% and the “Banded and Segmented Neutrophils” value [2] was 19%. The “Myelocytes and Metamyelocytes” value [2] was 78% and the Promyelocytes [2] was 3%.

`COC(=O)c1ccc(C2OC2(C)c2ccc3c(c2)C(C)(C)CCC3(C)C)cc1` (stereo not shown) [H drawing 10 H H OCH3 drawing 11] was tested, and the “Reductivity of NBT” value [1] was 81%, the “Banded and Segmented Neutrophils” value [2] was 9% and the “Myelocytes and Metamyelocytes” value [2] was 79%. For the same compound, the Promyelocytes [2] was 12%.

For `CC(C)c1ccc(NC(=O)c2ccc(C(=O)O)cc2)cc1C(C)C` [No. 30], the “Reductivity of NBT” value [1] was 90%, the “Banded and Segmented Neutrophils” value [2] was 11% and the “Myelocytes and Metamyelocytes” value [2] was 82%. For the same compound, the Promyelocytes [2] was 7%.

`COC(=O)c1ccc(C2OC2c2cccc(C(C)(C)C)c2)cc1` (stereo not shown) [H tBu H H H OCH3 drawing 9] was tested, and the “Reductivity of NBT” value [1] was 70%, the “Banded and Segmented Neutrophils” value [2] was 9% and the “Myelocytes and Metamyelocytes” value [2] was 69%. For the same compound, the Promyelocytes [2] was 20%.

In the case of `COC(=O)c1ccc(C(=O)Nc2ccc3c(c2)C(C)(C)CCC3(C)C)cc1` [No. 34], the “Reductivity of NBT” value [1] is reported as 97%, the “Banded and Segmented Neutrophils” value [2] is reported as 12% and the “Myelocytes and Metamyelocytes” value [2] is reported as 85%. For the same compound, the Promyelocytes [2] was 3%.

Reference: patent US4703110A, “Benzoic acid derivatives having a para substituent which is a substituted phenyl group connected by a linking radical; useful in neoplastic cell differentiation and diagnosis” (Shudo; Koichi, priority 1984, dated 1987)
